Patent US11708351B2 (Achillion Pharmaceuticals, Inc., priority 2017, dated 2023)

Each compound was assayed against Human Factor D (Homo sapiens (Human), UniProt P00746) (assay: Human Factor D Assay). Conditions: Factor D inhibition, assay of Example 10; read-out: IC50 (Stars).
Assay type: biochemical
Protocol: Human Factor D (purified from human serum, Complement Technology, Inc.) at 80 nM final concentration is incubated with test compound at various concentrations for 5 min at room temperature in 50 mM Tris, 1M NaCl, pH 7.5. A synthetic substrate Z-L-Lys-SBzl and DTNB (Ellman's reagent) are added to final concentrations of 100 μM each. Absorbance at 405 nm (A405) is recorded at 30 second intervals for 30 min using a microplate spectrophotometer. IC50 values are calculated by nonlinear regression of complement Factor D reaction rates as a function of test compound concentration.

Sequence of Human Factor D (P00746 26-253): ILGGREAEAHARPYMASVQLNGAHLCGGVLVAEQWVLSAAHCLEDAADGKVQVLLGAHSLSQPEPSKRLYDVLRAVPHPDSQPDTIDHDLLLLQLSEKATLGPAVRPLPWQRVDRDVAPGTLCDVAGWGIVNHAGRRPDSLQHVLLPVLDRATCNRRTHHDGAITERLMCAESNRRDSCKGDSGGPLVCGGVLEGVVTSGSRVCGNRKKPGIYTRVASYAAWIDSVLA

Row | Compound | IC50
1 | CC(=O)c1nn(CC(=O)N2[C@H](C(=O)Nc3nc(Br)ccc3COCCF)C[C@@]3(C)C[C@@H]23)c2ccc(-c3cnc(C)nc3)cc12 [Compound 301, (1R,3S,5R)-2-(2-(3-acetyl-5-(2-methylpyrimidin-5-yl)-1H-indazol-1-yl)acetyl)-N-(6-bromo-3-((2-fluoro-ethoxy)methyl)pyridin-2-yl)-5-methyl-2-azabicyclo[3.1.0]hexane-3-carboxamide] | < 1000 nM
2 | CC(=O)c1nn(CC(=O)N2[C@H](C(=O)Nc3nc(Br)c(F)cc3C)C[C@@]3(CN(CCO)CCO)C[C@@H]23)c2cnc(-c3cnc(C)nc3)cc12 [Compound 248, (1R,3S,5R)-2-(2-(3-acetyl-5-(2-methylpyrimidin-5-yl)-1H-pyrazolo[3,4-c]pyridin-1-yl)acetyl)-5-((bis(2-hydroxy-ethyl)amino)methyl)-N-(6-bromo-5-fluoro-3-methylpyridin-2-yl)-2-azabicyclo[3.1.0]hexane-3-carboxamide] | < 1000 nM
3 | CC(=O)c1nn(CC(=O)N2[C@H](C(=O)Nc3nc(Br)ccc3C)C[C@@]3(C)C[C@@H]23)c2cnc(-c3cnc(C)cn3)cc12 [Compound 303] | < 1000 nM
4 | COCc1ncc(-c2ccc3c(c2)c(C(C)=O)nn3CC(=O)N2[C@H](C(=O)Nc3nc(Br)ccc3C)C[C@@]3(C)C[C@@H]23)cn1 [Compound 278, (1R,3S,5R)-2-(2-(3-acetyl-5-(2-(methoxymethyl)py-rimidin-5-yl)-1H-indazol-1-yl)acetyl)-N-(6-bromo-3-methylpyridin-2-yl)-5-methyl-2-azabicyclo[3.1.0]hexane-3-carboxamide] | < 1000 nM
5 | CC(=O)c1nn(CC(=O)N(C(=O)[C@@H]2C[C@@]3(C)C[C@H]3N2)c2cccc(Br)n2)c2cnc(-c3cnc(C)nc3)cc12 [Compound 334, (1R,3S,5R)-2-(2-(3-acetyl-5-(2-methylpyrimidin-5-yl)-1H-pyrazolo[3,4-c]pyridin-1-yl)acetyl)-N-(6-bromopyridin-2-yl)-5-methyl-2-azabicyclo[3.1.0]hexane-3-carboxamide] | < 1000 nM
6 | CC(=O)c1nn(CC(=O)N2[C@H](C(=O)Nc3nc(Br)c(F)cc3C)C[C@@]3(CC#N)C[C@@H]23)c2cnc(-c3cnc(C)nc3)cc12 [Compound 249, (1R,3S,5R)-2-(2-(3-acetyl-5-(2-methylpyrimidin-5-yl)-1H-pyrazolo[3,4-c]pyridin-1-yl)acetyl)-N-(6-bromo-5-fluoro-3-methylpyridin-2-yl)-5-(cyanomethyl)-2-azabicyclo[3.1.0]hexane-3-carboxamide] | < 1000 nM

Same assay, conditions: Table 6; Factor D 80 nM, substrate Z-L-Lys-SBzl; read-out: IC50

Row | Compound | IC50
7 | CC(=O)c1nn(CC(=O)N2C[C@H]3C[C@H]3[C@H]2C(=O)N2C[C@H]3C[C@H]3[C@H]2C(=O)Nc2nc(Br)ccc2C)c2c(C)cc(-c3cnc(C)nc3)cc12 [Compound 92, (1R,2S,5S)-3-((1R,2S,5S)-3-(2-(3-acetyl-7-methyl-5-(2-methylpyrimidin-5-yl)-1H-indazol-1-yl)acetyl)-3-azabicyclo[3.1.0]hexane-2-carbonyl)-N-(6-bromo-3-methylpyridin-2-yl)-3-azabicyclo[3.1.0] hexane-2-carboxamide] | 1000 to 10000 nM
8 | CC(=O)c1nn(CC(=O)N2[C@H](C(=O)Nc3nc(Br)ccc3C)C[C@@]3(C)C[C@@H]23)c2c(CN(C)C)cc(-c3cnc(C)nc3)cc12 [Compound 167, (1R,3S,5R)-2-(2-(3-Acetyl-7-((dimethylamino)methyl)-5-(2-methylpyrimidin-5-yl)-1H-indazol-1-yl)acetyl)-N-(6-bromo-3-methylpyridin-2-yl)-5-methyl-2-azabicyclo[3.1.0]hexane-3-carboxamide] | < 1000 nM
9 | (3S)-5-(3-Azabicyclo[3.1.1]heptan-3-ylmethyl)-2-(2-(3-acetyl-5-(2-methylpyrimidin-5-yl)-1H-indazol-1-yl)acetyl)-N-(6-bromo-3-methylpyridin-2-yl)-2-azabicyclo[3.1.0]hexane-3-carboxamide [Compound 13] | < 1000 nM
10 | CC(=O)c1nn(CC(=O)N2[C@H](C(=O)O)C[C@@]3(C)C[C@@H]23)c2c(C)cc(-c3cnc(C)nc3)cc12 [Compound 126, (1R,3S,5R)-2-(2-(3-acetyl-7-methyl-5-(2-methylpyrimidin-5-yl)-1H-indazol-1-yl)acetyl)-5-methyl-2-azabicyclo[3.1.0] hexane-3-carboxylic acid] | > 10000 nM
11 | CC(=O)c1c2cc(-c3cnc(C)nc3)cc(C(F)(F)F)c2nn1CC(=O)N1[C@H](C(=O)Nc2nc(Br)ccc2C)C[C@@]2(C)C[C@@H]12 [Compound 217, (1R,3S,5R)-2-(2-(3-acetyl-5-(2-methylpyrimidin-5-yl)-7-(trifluoromethyl)-2H-indazol-2-yl)acetyl)-N-(6-bromo-3-methylpyridin-2-yl)-5-methyl-2-azabicyclo[3.1.0] hexane-3-carboxamide] | > 10000 nM

Same assay, conditions: Table 7; Factor D inhibition, assay of Example 10; read-out: IC50 (Stars)

Row | Compound | IC50
12 | CC(=O)c1nn(CC(=O)N2[C@H](C(=O)Nc3cc(-c4ccccc4O)cc(Br)n3)C[C@@]3(C)C[C@@H]23)c2ccc(-c3cnc(C)nc3)cc12 [Compound 556, (1R,3S,5R)-2-(2-(3-acetyl-5-(2-methylpyrimidin-5-yl)-1H-indazol-1-yl)acetyl)-N-(6-bromo-4-(2-hydroxyphenyl)pyridin-2-yl)-5-methyl-2-azabicyclo[3.1.0]hexane-3-carboxamide] | < 1000 nM

Same assay, conditions: Table 8; Factor D 80 nM, substrate Z-L-Lys-SBzl; read-out: IC50

Row | Compound | IC50
13 | COC(=O)CCCCCCCCCCCCCCCCC(=O)N[C@@H](CCC(=O)NCCOCCOCC(=O)NCCOCCOCC(=O)NCc1ncc(-c2cc(C)c3c(c2)c(C(C)=O)nn3CC(=O)N2[C@H](C(=O)Nc3nc(Br)ccc3C)C[C@@]3(C)C[C@@H]23)cn1)C(=O)OC [Compound 403, (S)-methyl 1-(5-(3-acetyl-1-(2-((1R,3S,5R)-3-((6-bromo-3-methylpyridin-2-yl)carbamoyl)-5-methyl-2-azabicyclo[3.1.0]hexan-2-yl)-2-oxoethyl)-7-methyl-1H-indazol-5-yl)pyrimidin-2-yl)-24-(methoxycarbonyl)-3,12,21,26-tetraoxo-5,8,14,17-tetraoxa-2,11,20,25-tetraazatritetracontan-43-oate] | < 1000 nM
14 | CC(=O)c1nn(CC(=O)N2[C@H](C(=O)Nc3nc(Br)ccc3C)C[C@@]3(CNC(=O)COCCOCCNC(=O)COCCOCCNC(=O)CC[C@H](NC(=O)CCCCCCCCCCCCCCCCC(=O)O)C(=O)O)C[C@@H]23)c2ccc(-c3cnc(C)nc3)cc12 [Compound 379, (S)-1-((1R,3S,5R)-2-(2-(3-acetyl-5-(2-methylpyrimidin-5-yl)-1H-indazol-1-yl)acetyl)-3-((6-bromo-3-methylpyridin-2-yl)carbamoyl)-2-azabicyclo[3.1.0]hexan-5-yl)-24-carboxy-3,12,21,26-tetraoxo-5,8,14,17-tetraoxa-2,11,20,25-tetraazatritetracontan-43-oic acid] | < 1000 nM
